Common to all, as to format: cell-based, human
For series [1], the system named is neural crest cells (NCC). Kind of series: Seahorse oxygen consumption rate (mitochondrial stress test). Conditions: at BMC10 (V) of cMINC, after basal respiration recording. Here is the method: The Seahorse bioanalyzer simultaneously measures cellular oxygen consumption rates (OCR) and extracellular acidification rates (ECAR). Therefore, NCCs were seeded at least two days prior to the assays at a density of 80,000 cells/well on Seahorse XF96 V3 PS Cell Culture Microplates (Agilent, Santa Clara, CA, USA) in either glucose medium or galactose medium. After 24 h, the medium was exchanged. For the real-time ATP production rate and mitochondrial stress assay, the cartridge was hydrated at 0% CO2 and 37 °C, and the seahorse was turned on to stabilize the temperature one day prior. The medium was changed to Seahorse XF DMEM Medium (Agilent, Santa Clara, CA, USA) supplemented with 2 mM L-glutamine, 1 mM pyruvate and 18 mM glucose or galactose 1 h before the start of the assays. Directly before the start of the assay, the medium was exchanged again. The sensor cartridge was loaded with the test compounds anchored to the BMC10 (V) of the cMINC screen and the recommended concentrations of calibration compounds for a mitochondrial stress test. These were 5 μM oligomycin, 15 μM carbonyl cyanide p-trifluoro methoxyphenylhydrazone (FCCP) and 5 μM rotenone plus 5 μM antimycin A. Additionally, 1 μg/mL H-33342 was added to the rotenone and antimycin A injection to perform afterwards a cell count (Cellomics, Waltham, MA, USA), to which the data were normalized. Six technical replicates were used for control conditions, and three technical replicates were used for other samples. The software Seahorse Analytics (Agilent, Santa Clara, CA, USA) was used for the evaluation (https://seahorseanalytics.agilent.com (accessed on 30 October 2024)).

In series [2] the test system is neural crest cells (NCC). Nature of the series: Intracellular ATP measurement (CellTiterGlo). The settings on record: at BMC10 (V) of cMINC. Here is the method: Cells were seeded at a density of 20,000 cells/well. The NCCs were treated with the BMC10 (V) of the cMINC screen for one hour, six hours or 24 h. Then, a CellTiterGlo-Triton mix was prepared. Therefore, a 0.5% Triton solution in PBS was prepared, and the commercial reagent mix CellTiterGlo 2.0 (Promgea, Madison, WI, USA) was added in a 1:1 ratio. An amount of 50 µL/well of the mix was added to 100 µL of medium. The plate was shaken for two minutes, and 100 µL of the cell mixture was transferred to a white measurement plate. For the blank value, only medium with the mix was measured. Luminescence data of samples were normalized to DMSO solvent controls, and the ATP data are given in % relative to “untreated cells”.

For series [3], the system named is neural crest cells (NCC). Nature of the series: cMINC (UKN2) assay: circular migration of neural crest cells, with viability. Here is the method: The research group initially developed the first version of the test in 2012 [40]. The test has been further improved and characterized. To perform the cMINC assay, NCCs were thawed in N2-S Medium and seeded on the day of migration-1 (DoM-1) on a 96-well polystyrene plate (Corning, Glendale, AZ, USA) around stoppers, to create a cell-free area of 2 mm diameter (Platypus Technologies, Madison, WI, USA). The cells were resuspended in N2-S Medium supplemented with […] of the cytokines EGF and FGF, and then counted and seeded around the stoppers at a density of 95,000 cells/cm^2. After 24 h, the stoppers were removed, and the medium was exchanged. The removal of the stoppers initiates migration of the NCCs into the cell-free area. For the treatment, the 5x-concentrated toxicant solution was added to the medium 24 h after stopper removal.
On day 2, cells were stained with 533 nM calcein-AM and 1 μg/mL H-33342 (both from Sigma, Steinheim, Germany) and observed using two different channels on the Cellomics ArrayScan VTI imaging microscope (Thermo Fisher, Pittsburgh, PA, USA) to assess viability and migration. For the migration, four pictures were taken in the region of interest (ROI) (5× magnification objective). Migration data were obtained using the software “Ringassay” (http://invitrotox.uni-konstanz.de/ (accessed on 3 November 2024)), which can estimate the previously cell-free area and count the number of H-33342 and calcein-AM double-positive cells. Cell viability was assessed by taking four pictures outside of the ROI with 10× magnification objective. Viable cells were defined as H-33342 and calcein-AM double-positive cells and calculated by an automatic algorithm of the ArrayScan VTI 700 Series software as described earlier. […] Each plate included wells for testing of negative (0.1% DMSO solvent) and positive controls (200 nM cytochalasin D) in addition to the wells for blinded samples. The data from control wells were used as acceptance criteria of the assay. […] Renormalization of the concentration–response curves was performed after a visual inspection that the two lowest test-concentration data points are in the no-effect range. The average response (relative to solvent control) of the lowest two test concentrations was calculated, and all other data points of the same curve were divided by this average value. The calculations of the benchmark concentrations 10 for viability (BMC10 (V)) and 25 for migration (BMC25 (M)) were performed with the online available BMC software (http://invitrotox.uni-konstanz.de/ (accessed on 4 November 2024)).

Series [4] deals with neural crest cells (NCC). Nature of the series: Transwell migration assay (FBS chemoattractant, 6 h). The settings on record: for effect on transwell migration: negative controls, 100 µM. The procedure: Cells were seeded at a density of 50,000 cells/well (150,000 cells/cm^2) into the upper chamber (insert) of the 96-well transwell plates (pore size 8 μm, polycarbonate membrane, Corning, Glendale, AZ, USA). The cells were stimulated to migrate through the membrane by medium supplemented with 5% of the chemoattractant fetal bovine serum (FBS) (PAA Laboratories, Pasching, Austria) in the lower chamber (reservoir). For testing of migration inhibition upon compound treatment, compounds were used at a concentration of BMC10 (V) of prior cMINC testing. Three technical replicates per condition were used. As a control for “unstimulated” migration, medium without any chemoattractant was tested. As an endpoint specific control for “inhibited” migration, CytoD with a concentration of 200 nM was used. After 6 h incubation time, the medium was aspirated, and reservoirs were washed with DPBS. Afterwards, reservoirs were filled with EDTA dissociation solution (DPBS supplemented with 0.1% 0.5 M EDTA UltraPure pH 8.0 (Thermo Fisher Scientific, Waltham, MA, USA), and 0.18% NaCl) containing 0.25 μL/mL calcein-AM and incubated for 30 min at 37 °C. The plates were then centrifuged at 300× g for 5 min (1200 rpm, Heraeus Multifuge 1 S-R, ThermoScientific) to remove migrated cells from the membrane. The tray with 96 wells of permeable inserts was removed, and the receiver plate was measured in the spectrophotometer (TECAN, Männedorf, Switzerland) with an emission wavelength of 520 nm. After subtraction of the blank values, the number of migrated cells was normalized to that of cells stimulated with FBS.
To perform the experiments under mitochondria-dependent conditions, the cells were handled exactly in the same way, but the medium was adapted. The N2-S medium was adjusted, so that no glucose was present but galactose. The medium consisted of SILAC^TM Advanced DMEM/-F12 FLEX (Gibco/Fisher Scientific, Hampton, NH, USA), 15 μg/mL insulin, 400 μM GlutaMAX, 0.7 mM L-Arginine, 0.5 mM L-Lysine, 21.5 µM Phenol Red, 20 nM progesterone, 100 μM putrescine and 30 nM selenium, 92.5 μg/mL apotransferrin, 4.7 mg/mL galactose (18 mM). The cytokines 20 ng/mL EGF and 20 ng/mL FGF2 were always freshly added to each run.

The mark [5] stands for this setting: Pre-Screen 1, single concentration 1:1000 of stock, in most cases 100 μM.

As for `O=[N+]([O-])c1cc(C(F)(F)F)c(Cl)c([N+](=O)[O-])c1Nc1ncc(C(F)(F)F)cc1Cl` [Fluazinam, fluazinam], the “effect on oxygen consumption rate (OCR) after injection” value in series [1] is on record as “no decrease in OCR”. Besides, in series [2] (after 1 h), the “decline of ATP” value is on record as above 25%. Moreover, the “decline of ATP” value in series [2] (after 24 h) was above 90%. Besides, the BMC25 (M) in series [3] (Homo sapiens, 24 h, migration, primary screen, 24 h exposure, read-out: BMC25) came out at 4e-07 M. In series [3] (setting [5]), the Migration is on record as 0 % of control and the Viability is reported as 2 % of control. The Ratio in series [3] (migration/cytotoxicity ratio, hit requires ≥ 1.3, HTC used where no viability effect) is on record as 2.0. For the same compound, in series [3] (viability, primary screen, 24 h exposure, * = no effect up to highest tested concentration), the “BMC10 (V)” value came to 0.8 µM.

`O=C1O[C@H]([C@@H](O)CO)C(O)=C1O` [L-ascorbic acid, reference compound]: the “effect on transwell migration” value in series [4] was “no inhibited migration was observed”. Moreover, the Migration in series [3] (setting [5]) is reported as 100 % of control.

On to `O=C1NS(=O)(=O)c2ccccc21` [Saccharin sodium hydrate, reference compound], for which the “effect on transwell migration” value in series [4] is “no inhibited migration was observed”. Moreover, in series [3] (setting [5]), the Migration is 103 % of control.

The compound `C=C1[C@@H](C)[C@H]2[C@H](Cc3ccccc3)NC(=O)[C@]23[C@H](OC(C)=O)/C=C/[C@@](C)(O)C(=O)[C@@H](C)C/C=C/[C@H]3[C@@H]1O` [cytochalasin D, Cytochalasin D] yielded a reduced migration in series [4] (200 nM, positive control) of 75%.

(Values after paper PMC11674305, “Inhibition of Neural Crest Cell Migration by Strobilurin Fungicides and Other Mitochondrial Toxicants” (Cells, 2024).)
